Measurements published in PubChem BioAssay (NCI).
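Values below derive from 48-hour exposures of cells grown in 96-well plates, with endpoints linearly interpolated between the two concentrations bracketing the appropriate inhibition level. GI50 is the concentration that inhibits growth by half. At the TGI there is no net growth.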

Columns and labels:
Experiment in all cases: growth of human tumour cells (NCI), 48 h
[1] = test system: HL-60(TB) leukemia
[2] = test system: NCI/ADR-RES ovarian
[3] = test system: U251 CNS
[4] = test system: T-47D breast
[5] = test system: RPMI-8226 leukemia
[6] = test system: OVCAR-3 ovarian
[7] = test system: HCC-2998 colon
[8] = test system: SK-MEL-2 melanoma
[9] = test system: NCI-H23 lung
[10] = test system: SK-OV-3 ovarian
[11] = test system: NCI-H460 lung
[12] = test system: RXF 393 renal
[13] = test system: HOP-92 NSCLC
[14] = test system: PC-3 prostate
[15] = test system: SR leukemia
[16] = test system: SF-539 CNS
[17] = test system: SF-295 CNS
[18] = test system: 786-0 renal
[19] = test system: HCT-15 colon
[20] = test system: COLO 205 colon
[21] = test system: SNB-19 CNS
[22] = test system: SN12C renal
[23] = test system: SNB-75 CNS
[24] = test system: SK-MEL-28 melanoma
[25] = test system: CAKI-1 renal
[26] = test system: UACC-62 melanoma
[27] = test system: HCT-116 colon
[28] = test system: UO-31 renal
[29] = test system: HOP-62 NSCLC
[30] = test system: K-562 leukemia
[31] = test system: IGROV1 ovarian
[32] = test system: A549 NSCLC
[33] = test system: OVCAR-5 ovarian
[34] = test system: DU-145 prostate
[35] = test system: SK-MEL-5 melanoma
[36] = test system: HS 578T breast
[37] = test system: SF-268 CNS
[38] = test system: KM12 colon
[39] = test system: MOLT-4 leukemia
[40] = test system: CCRF-CEM leukemia
[41] = test system: MDA-MB-231 breast
[42] = test system: NCI-H522 lung
[43] = test system: LOX IMVI melanoma
[44] = test system: TK-10 renal
[45] = test system: OVCAR-4 ovarian
[46] = test system: SW-620 colon
[47] = test system: HT29 colon
[48] = test system: OVCAR-8 ovarian
[49] = test system: BT-549 breast
[50] = test system: UACC-257 melanoma
[51] = test system: NCI-H226 lung
[52] = test system: MDA-MB-435
[53] = test system: EKVX NSCLC
[54] = test system: MCF7 breast
[55] = test system: A498 renal
[56] = test system: M14 melanoma

SMILES: CC1CN1C1=CC(=O)c2c(c(CO)cn2C)C1=O (centres undefined)
- GI50 [1]: 22900 nM
- TGI [1]: 75200 nM
- GI50 [2]: 84.8 nM
- TGI [2]: 926 nM
- GI50 [3]: 152 nM
- TGI [3]: 835 nM
- GI50 [4]: 8340 nM
- TGI [4]: > 34600 nM
- GI50 [5]: 241 nM
- TGI [5]: 3320 nM
- GI50 [6]: 254 nM
- TGI [6]: 1110 nM
- GI50 [7]: 105 nM
- TGI [7]: 415 nM
- GI50 [8]: 300 nM
- TGI [8]: 3320 nM
- TGI [9]: 26.5 nM
- GI50 [10]: 509 nM
- TGI [10]: 23200 nM
- TGI [11]: 651 nM
- GI50 [12]: 861 nM
- GI50 [13]: 9920 nM
- TGI [13]: 35600 nM
- GI50 [14]: 313 nM
- TGI [14]: 3300 nM
- GI50 [15]: 11.2 nM
- TGI [15]: 69 nM
- GI50 [16]: 31.3 nM
- TGI [16]: 230 nM
- GI50 [17]: 76 nM
- TGI [17]: 566 nM
- GI50 [18]: 232 nM
- TGI [18]: 2520 nM
- GI50 [19]: 65.1 nM
- TGI [19]: 649 nM
- GI50 [20]: 171 nM
- GI50 [21]: 247 nM
- TGI [21]: 3740 nM
- GI50 [22]: 70.6 nM
- TGI [22]: 1280 nM
- GI50 [23]: 438 nM
- TGI [23]: 2650 nM
- GI50 [24]: 491 nM
- GI50 [25]: 18 nM
- TGI [25]: 293 nM
- GI50 [26]: 144 nM
- TGI [26]: 431 nM
- GI50 [27]: 137 nM
- TGI [27]: 1030 nM
- GI50 [28]: 124 nM
- TGI [28]: 386 nM
- GI50 [29]: 62 nM
- TGI [29]: 386 nM
- GI50 [30]: 833 nM
- TGI [30]: 64500 nM
- GI50 [31]: 306 nM
- TGI [31]: 5150 nM
- GI50 [32]: 62.3 nM
- TGI [32]: 3180 nM
- GI50 [33]: 1550 nM
- TGI [33]: 14800 nM
- GI50 [34]: < 11.2 nM
- TGI [34]: 234 nM
- GI50 [35]: 57.7 nM
- TGI [35]: 191 nM
- GI50 [36]: 689 nM
- GI50 [37]: 257 nM
- TGI [37]: 5280 nM
- GI50 [38]: 261 nM
- TGI [38]: 1380 nM
- GI50 [39]: 5430 nM
- TGI [39]: > 100000 nM
- GI50 [40]: 3350 nM
- TGI [40]: 62800 nM
- GI50 [41]: 20000 nM
- TGI [41]: 46200 nM
- GI50 [42]: 200 nM
- TGI [42]: 1980 nM
- GI50 [43]: 66 nM
- TGI [43]: 387 nM
- GI50 [44]: 261 nM
- TGI [44]: 1490 nM
- GI50 [45]: 1660 nM
- TGI [45]: 6340 nM
- GI50 [46]: 105 nM
- TGI [46]: 1020 nM
- GI50 [47]: 220 nM
- GI50 [48]: 628 nM
- TGI [48]: > 20500 nM
- GI50 [49]: 293 nM
- TGI [49]: 1570 nM
- GI50 [50]: 925 nM
- TGI [50]: 3650 nM
- GI50 [51]: 324 nM
- TGI [51]: 2100 nM
- GI50 [52]: 311 nM
- TGI [52]: 1320 nM
- GI50 [53]: 3090 nM
- TGI [53]: 17000 nM
- GI50 [54]: 63.4 nM
- GI50 [55]: 358 nM
- TGI [55]: 1760 nM
- GI50 [56]: 13.9 nM
- TGI [56]: 127 nM
